Reference: US4959374A, “Novel compounds” (Beecham Group P.L.C., priority 1989, dated 1990)

Tested on: CFLP female mice
Assay: Reversal of Adrenaline-Exacerbated Glucose Intolerance in Mice
Assay type: in vivo
Conditions: oral gavage, glucose 1 g/kg and adrenaline 300 μg/kg s.c., 0-120 minutes, versus water control, 24 h fasted mice
Procedure: (A) Reversal of Adrenaline-Exacerbated Glucose Intolerance in Mice
CFLP female mice of about 25 g were fasted for 24 hours prior to receiving water (10 ml/kg) or compounds by oral gavage. Thirty minutes later, glucose (1 g/kg) and adrenaline (300 μg/kg) were injected subcutaneously. Blood samples for glucose analysis were taken serially from the tail of each mouse at 0, 30, 60, 90 and 120 minutes after dosing glucose and the results are expressed below as the percentage reduction in the area under the blood glucose curve; the compound treated groups being compared to the water dosed control group. Six mice were used in each treatment group.

| Compound | % Reduction in area under Blood Glucose Curve (20 μmol/kg) [%] | % Reduction in area under Blood Glucose Curve (10 μmol/kg) [%] |
| --- | --- | --- |
| Clc1ccc2c(c1)CN(CC1=NCCN1)C2 [Example 3, 2-[2H-(5-Chloro-1,3-dihydroisoindole)methyl]-4,5-dihydroimidazole] | 44 |  |
| Clc1cccc2c1CN(CC1=NCCN1)C2 [Example 2, 2-[2H-(4-Chloro-1,3-dihydroisoindole)methyl]-4,5-dihydroimidazole] |  | 24 |
| c1ccc2c(c1)CN(CC1=NCCN1)C2 [Example 1, 2-[2H-(1,3-Dihydroisoindole)methyl]-4,5-dihydroimidazole] |  | 40 |
